Residues, ends and D or L forms follow the SMILES beside them.
`CC(=O)OCC1OC(n2cc(Cc3ccc(Br)cc3)c3c(C)cccc32)C(OC(C)=O)C(OC(C)=O)C1OC(C)=O` (stereo not given) gave a melting point of 190 to 192 °C. `Cc1ccc2c(n1)C(=O)N(c1cccc3ccccc13)C2=O` showed a melting point of 200 to 205 °C. Compound `CCOC(=O)c1c(O)c(O)c(C(=O)OCC)n1Cc1ccccc1` has a melting point of 144 to 145 °C. Compound `O=C1[C@H](O)CCN1CC#CCN1CCCC1` has a melting point of 81 to 85 °C. In the case of `CC(C)N(C(=O)c1cccc2c1CCc1cc(F)ccc1S2)C(C)C`, the melting point is reported as 149 to 150 °C. With `COc1cc2c(cc1OCc1ccccc1)C(c1ccccc1)NCC2` (stereo not given) the melting point was 123 to 125 °C. `C=C(CBr)S(=O)(=O)C(C)(C)C` gave a melting point of 40.5 to 42 °C. With `CCOCOC1CCC2(C)C(=CCC3C2CCC2(C)C(C(C)CCCC(C)C)CCC32)C1` (stereo not given) the melting point was 64 to 66 °C. In the case of `O=C1[C@H](CC[C@H](O)c2ccc(F)cc2)[C@@H](c2ccc(O)c(-c3ccccc3)c2)N1c1ccc(F)cc1`, the melting point is reported as 113 °C. Work on `CC(C)OC(=O)C(C)NC(=O)C(N)(CC(=O)O)NC(=O)C(C)C` (stereo not given) yielded a melting point of 176 to 178 °C. Work on `Nc1nccnc1C(=O)Nc1ccccc1Cl` yielded a melting point of 177 to 179 °C. Compound `Nc1nc(N)nc(OCc2ccccc2)n1` has a melting point of 184 to 185 °C. In the case of `O=C(O)c1cn(-c2ccc(F)cc2)c2c(F)c(N3Cc4cccc(F)c4C3)c(F)cc2c1=O`, the melting point is reported as > 300 °C. `O=C(O)CCCc1ncccc1NS(=O)(=O)c1ccccc1` showed a melting point of 156 to 157 °C. `Cc1nc(NC(=O)c2cccc3ccccc23)sc1C(=O)NCc1ccccc1` showed a melting point of 99 to 101 °C. Work on `Cc1oc(-c2ccccc2)nc1COc1ccc(CON=C(CC(N)=O)c2ccccc2)cc1` yielded a melting point of 164 to 165 °C. `COC(=O)c1cc(-c2cccs2)cc(C)c1NS(=O)(=O)c1ccc(OC)cc1` showed a melting point of 91 °C. `COc1cccc(-c2ccnc3c(C#N)cnn23)c1` showed a melting point of 165 to 166 °C. Work on `CCCCNc1cc(C(=O)O)cc(S(=O)(=O)NCCCC)c1Oc1ccccc1` yielded a melting point of 184 to 185 °C. With `O=C(O)c1cn(-c2ccc(F)cc2F)c2cc(-c3ccncc3)ccc2c1=O` the melting point was 291 to 292 °C. With `CCCc1cc(C(O)(CC)CC)ccc1-c1cc(OCc2ccc(CO)c(CO)c2)ccc1CC` the melting point was 101 °C. `Cc1ccc(S(=O)(=O)n2c3cccc(CCl)c3c3c(C)ccc(C)c32)cc1` showed a melting point of 149 °C. Work on `CC(Cn1cc(Cl)c(-c2ccccc2Cl)n1)C(=O)N(C)C` (stereo not given) yielded a melting point of 91 to 92 °C. Compound `Nc1nc(SC2CCC2)c2ncn(C3C=CC(CO)C3)c2n1` (stereo not given) has a melting point of 159 to 160 °C. `O=C(O)C1=Cc2c(ccc(Cl)c2-c2ccco2)OC1C(F)(F)F` (stereo not given) showed a melting point of 191 to 193 °C. With `COc1cc(C2c3cc4c(cc3C(NC3=C(C)C(=O)N(C)C3=O)C3COC(=O)C23)OCO4)cc(OC)c1O` (stereo not given) the melting point was 172 to 176 °C. In the case of `CN(C)c1ccc2cc(C#N)oc2c1`, the melting point is reported as 70 to 71 °C. `CCOC(=O)c1cc2c(cn1)[nH]c1ccc([N+](=O)[O-])c(OCc3ccccc3)c12` showed a melting point of 254 °C. In the case of `CC1(C)CC(=O)c2c(C3CC3)sc(-c3nccs3)c2C1`, the melting point is reported as 103 to 105 °C. Compound `COC(=O)c1ccc2c(c1)C(C#N)=CCC2` has a melting point of 73 to 75 °C. `CCCCCOCCCCCCCCCCCCBr` showed a melting point of 25 °C. With `Nc1nc(Oc2ccc(C(F)(F)F)cc2Cl)ccc1[N+](=O)[O-]` the melting point was 80 to 84 °C. Compound `c1cc(-c2noc(C3CC3)n2)ncn1` has a melting point of 89 to 94 °C. `CN(CC1(C)Cn2cc([N+](=O)[O-])nc2O1)C(=O)OCc1ccc(F)cc1` (stereo not given) showed a melting point of 169 to 170 °C. `O=C(NC(=O)c1c(Cl)cccc1Cl)Nc1ccc(Sc2ccc(Cl)cc2)nc1` showed a melting point of 160 to 162 °C. Compound `CCOC(=O)c1ccc(OCCC2CCN(c3ccc(C)nn3)CC2)s1` has a melting point of 114 °C. For `CC(C)(C)NC(=O)c1cc(Br)c(Br)s1`, the melting point was 190 °C. `C=CCN1CCC(c2cc(-c3ccc(Cl)cc3)[nH]n2)CC1` showed a melting point of 165 to 167 °C. `Cc1ccc(Sc2cncc3sc(C(=O)NN)cc23)cc1` gave a melting point of 176 to 178 °C. Compound `CC(C)(C)Cc1nc2cc(S(=O)(=O)c3ccccc3)ccc2n1CC1CC1` has a melting point of 173 °C. With `COC(=O)[C@@H](Cc1ccccc1)Oc1c(Br)cc(-c2c3ccccc3c(Br)c3sc4ccccc4c23)cc1Br` the melting point was 138 to 140 °C. `COc1ccc(C(=O)Nc2c(Cl)cc(C=O)cc2Cl)cc1OC1CCCC1` showed a melting point of 96 to 98 °C. Compound `COC(=O)COc1ccc(C(=O)CN(C)C(=O)c2ccc(C(=N)N)cc2)cc1OCC(=O)OC` has a melting point of 177 to 178 °C. For `CC(C)C(=O)c1c(-c2ccc(F)cc2)nn2cc(C(F)(F)F)ccc12`, the melting point was 129 to 130 °C. In the case of `Cc1ccc2cccc(OCc3c(C)ccc(N)c3C)c2n1`, the melting point is reported as 204 to 205 °C. `OCc1cccc2nc(-c3ccccc3)oc12` gave a melting point of 131 °C. In the case of `CC1(C)CCC(C)(C)c2cc(-c3ccc(O)cc3)ccc21`, the melting point is reported as 137 to 140 °C. For `O=C(Oc1ccc(-c2ccc(OC(=O)c3cc(O)c(Br)c(O)c3)cc2)cc1)c1ccc(O)c(O)c1`, the melting point was 252 to 254 °C. With `COc1cc(C(C)C)nn1C` the melting point was 114 to 115 °C. Work on `CN(C(=O)OC(C)(C)C)c1cnc(-c2ccc(Cl)nc2)s1` yielded a melting point of 167 to 170 °C. For `CN1CC[C@H](c2c(O)cc(O)c3c(=O)cc(-c4ccccc4Cl)oc23)[C@H](O)C1`, the melting point was 182 °C. For `CC(=O)N[C@@H](Cc1ccc2ccccc2c1)C(=O)OCc1cc(C)cc(C)c1`, the melting point was 96 to 97 °C. `O=C1CSC(=S)N1N=c1sc2ccc(C(F)(F)F)cc2s1` gave a melting point of 285 to 288 °C. `CCC(C(=O)O)c1cccc(C(=O)c2cc3cc(C(=O)O)sc3s2)c1` (stereo not given) showed a melting point of 240 °C. Compound `COc1cc(N2CCC(N3CC[C@@H](O)C3)CC2)ccc1[N+](=O)[O-]` has a melting point of 137 to 139 °C. Work on `CC(=Cc1ccc(C(=O)O)cc1)c1ccc2c(c1)N(C)CCC2(C)C` yielded a melting point of 194 to 196 °C. Work on `CCCc1c(Br)sc2[nH]c(=O)c(=O)[nH]c12` yielded a melting point of 269 to 271 °C. Work on `Cn1nnc(N(Cc2ccccc2)C(=O)C2CCCC2)n1` yielded a melting point of 54 °C. `COC(=O)CCS(=O)c1cc(C(C)(C)C)c(O)c(C(C)(C)C)c1` (stereo not given) gave a melting point of 106 to 108 °C. In the case of `Cn1nc(-c2ccccc2)nc1-c1ccncc1`, the melting point is reported as 132 to 134 °C. `Cc1cc(N2N=C(c3ccc([N+](=O)[O-])cc3)c3cc4c(cc3CC2C)OCO4)on1` (stereo not given) showed a melting point of 179 to 182 °C. In the case of `CCCC(=O)c1cc(OC)c(O)c([N+](=O)[O-])c1`, the melting point is reported as 92 to 93 °C. `CNc1nc(-c2cccc(NC(=O)c3ccc(Cl)cc3)c2)c2cc(OC)c(OC)cc2n1` gave a melting point of 193 to 195 °C. For `O=C(Nc1ccccc1)Nc1cc(F)ccc1C(=O)O`, the melting point was 163 to 166 °C. Compound `O=C(O)CCc1cc(OCC2CC2)nn1Cc1ccc(C(F)(F)F)cc1Cl` has a melting point of 115 to 116 °C. In the case of `CSc1ccc(C)cc1S(=O)(=O)NC(C)(C)C`, the melting point is reported as 119 to 121 °C. For `Nc1ccccc1Oc1ccccc1-c1ccccc1Oc1ccccc1N`, the melting point was 175 °C. `CN1CCC23c4c5cccc4OC2C(=O)CCC3(O)C1C5` (stereo not given) gave a melting point of 223 to 225 °C. In the case of `COc1ccc(Cl)c(Oc2c(C=O)nc(N3CCOCC3)nc2NS(=O)(=O)c2ccc(C(C)(C)C)cc2)c1`, the melting point is reported as 235 to 236 °C. Work on `O=C(CCCl)n1ccc2ccccc21` yielded a melting point of 67 °C. `Cc1cccc(C2(CC(=O)O)CNC(=O)C2)c1` (stereo not given) gave a melting point of 152 to 154 °C. `COc1cccc2c1OC(CN1CCC(CNC(=O)c3cccnc3N)CC1)CO2` (stereo not given) showed a melting point of 57 to 60 °C. `CO[C@]1(c2cc(F)cc(Sc3ccc(/C(C)=N/O)cc3)c2)CCO[C@@H](C)C1` gave a melting point of 105 °C. For `CCOC(=O)c1cn2c3ccc(Br)cc3c3cc(OC)cc(c1=O)c32`, the melting point was 95.6 to 97.6 °C. `CCOC(=O)Cn1c(C(=O)NCc2nnc(C)n2-c2sc(C)cc2C(=O)c2ccccc2Cl)cc2ccccc21` showed a melting point of 153 to 154 °C. With `O=c1[nH]c2ccc(Cl)cc2n2ccnc12` the melting point was > 300 °C. `CCc1ccc2c(c1)C(c1ccccc1F)=NCC1CN=C(C)N21` (stereo not given) showed a melting point of 152 to 154 °C. `Cc1ccc2ccn3c(C(F)(F)F)nnc3c2c1` showed a melting point of 205 to 206 °C. Compound `O=C(Cc1ccccc1)N[C@@H]1C(=O)N2C[C@@H](O)CS[C@H]12` has a melting point of 166 to 167 °C. For `NC(=O)CC(NC(=O)C(N)CO)C(=O)NC(Cc1ccccc1)C(N)=O` (stereo not drawn) (H-Ser-Asn-Phe-NH2; configuration not given here), the melting point was 169 to 172 °C. Compound `CCOC(=O)c1ccc2c(c1)CCC(Cc1cnc(N)s1)C2` (stereo not given) has a melting point of 150 to 153 °C. Compound `O=S(=O)(CC(Cl)C(F)=C(F)F)c1ccccc1` (stereo not given) has a melting point of 45 to 47 °C. Work on `Cn1ccnc1COc1ccccc1[N+](=O)[O-]` yielded a melting point of 172 to 174 °C. In the case of `O=C(Nc1nc(C(Cl)(Cl)Cl)ns1)C(F)(F)F`, the melting point is reported as 116 °C. `O=C1OCc2c(-c3noc(C4CC4)n3)ncn2-c2ccccc21` gave a melting point of 206 to 209 °C. Work on `CCn1c(Nc2ccc(C(F)(F)F)cc2C(F)(F)F)nc(C(F)(F)F)c(Cl)c1=O` yielded a melting point of 124 °C. Work on `Cc1cc(SC2=C(O)CC(C3CCCC3)(C3CCCC3)OC2=O)c(C(C)(C)C)cc1CO` yielded a melting point of 158 to 160 °C. Compound `CC(C)(C)COc1ccc(NC(=O)c2cc3ccccc3n2CC(=O)O)cc1C#N` has a melting point of 194 to 195 °C. `O=C(O)c1cn(C2CC2)c2c(C(F)(F)F)c(N3CCN(c4ncccn4)CC3)c(F)cc2c1=O` gave a melting point of 285 to 287 °C. `CC(C)(C)OC(=O)N1CC[C@H](Oc2ccc([N+](=O)[O-])cc2)C1` showed a melting point of 112 to 114 °C. Work on `Cc1nc2c(s1)-c1nc(NCc3ccccc3)ncc1CC2` yielded a melting point of 152 to 154 °C. In the case of `CCOC(=O)NCCN1CCC(NC(=O)c2cc(Cl)c(N)c3c2OCCC3)CC1`, the melting point is reported as 160 °C. Compound `C=C1SC(=O)N(c2ccc3cc(-c4ccc(OC)c(C5(C)CCCCC5)c4)ccc3c2)C1=O` has a melting point of 268 to 271 °C. With `COc1cccc2c1cc(C)n2Cc1c(Cl)cccc1Cl` the melting point was 154 to 157 °C. Compound `FC(F)(F)c1cc2[nH]c(N3CCN(c4ncccc4Cl)CC3)nc2cc1Cl` has a melting point of 209 to 211 °C. In the case of `COc1ccc(C(C)(C)C)cc1C=Cc1ccc(CCl)cc1`, the melting point is reported as 103 to 104 °C. For `COc1cc2c(Cl)c(C#N)cnc2cc1OCc1ccccc1`, the melting point was 282 to 284 °C. Work on `O=C1c2ccccc2S(=O)(=O)c2c1cccc2-c1nnn[nH]1` yielded a melting point of 271 °C. `Cc1cc2oc(C#N)cc(=O)c2c(C)c1Cl` showed a melting point of 142 to 143 °C. Compound `O=Cc1cccc(-c2ccccn2)n1` has a melting point of 41 to 43 °C.

Reference: a melting point compilation (Tetko et al.; mined from patent text by program, amines drawn as free bases though some values may be those of a salt)
